Laboratory results as given in patent publication US20100234386A1, “QUINOXALINE DERIVATIVES AS PI3 KINASE INHIBITORS” (priority 2007, published 2010).

Molecular target: T1, PI3Kα (Homo sapiens, UniProt P42336)
T1 construct: His
Test: PI3K Alpha Leadseeker SPA Assay
Assay type: biochemical
Conditions: in at least one experimental run; read-out: IC50 value against PI3Kα
Source text: PI3K Alpha Leadseeker SPA Assay
SPA imaging beads are microspheres containing scintillant which emit light in the red region of the visible spectrum. As a result, these beads are ideally suited to use with a CCD imager such as the Viewlux. The Leadseeker beads used in this system are polystyrene beads that have been coupled with polyethyleneimine. When added to the assay mixture, the beads absorb both the substrate (PIP2) and product (PIP3). Adsorbed P^33-PIP3 will cause an increase in signal, measured as ADUs (analog to digital units). This protocol details the use of the PEI-PS Leadseeker beads for assays using His-p110/p85 PI3K alpha.
The compounds are serially diluted (3-fold in 100% DMSO) across the plate from column 1 to column 12 and column 13 to column 24 and leave column 6 and 18 containing only DMSO to yield 11 concentrations for each test compound.
The assay buffer contains MOPS (pH 6.5), CHAPS, and DTT. PI3K alpha and PIP2 (L-alpha-D-myo-Phosphatidylinositol 4,5-bisphosphate[PI(4,5)P2]3-O-phospho linked, D(+)-sn-1,2-di-O-octanoylglyceryl, CellSignals # 901) are mixed and incubated in the plate with compound for 30 min prior to starting the reaction with the addition of P^33-ATP and MgCl2 (reagents added using Zoom). […] PEI-PS Leadseeker beads in PBS/EDTA/CHAPS are added (by Multidrop) to quench the reaction, and the plates are allowed to incubate for at least one hour (typically overnight) before centrifugation. The signal is determined using a Viewlux detector and is then imported into curve fitting software (Activity Base) for construction of concentration response curves. The percent inhibition of activity is calculated relative to high controls (C1, 0.1 μl DMSO in column 6, rows A-P)) and low controls (C2, 5 μl of 40 uM PIP2 in buffer in column 18, rows A-P) using, 100*(1−(U1−C2)/(C1−C2)). The concentration of test compound yielding 50% inhibition is determined using the equation, y=((Vmax*x)/(K+x))+Y2, where “K” was equal to the […]. The IC50 values are converted to pIC50 values, i.e., −log IC50 in Molar concentration.

T1 sequence (P42336 whole entry, species assumed): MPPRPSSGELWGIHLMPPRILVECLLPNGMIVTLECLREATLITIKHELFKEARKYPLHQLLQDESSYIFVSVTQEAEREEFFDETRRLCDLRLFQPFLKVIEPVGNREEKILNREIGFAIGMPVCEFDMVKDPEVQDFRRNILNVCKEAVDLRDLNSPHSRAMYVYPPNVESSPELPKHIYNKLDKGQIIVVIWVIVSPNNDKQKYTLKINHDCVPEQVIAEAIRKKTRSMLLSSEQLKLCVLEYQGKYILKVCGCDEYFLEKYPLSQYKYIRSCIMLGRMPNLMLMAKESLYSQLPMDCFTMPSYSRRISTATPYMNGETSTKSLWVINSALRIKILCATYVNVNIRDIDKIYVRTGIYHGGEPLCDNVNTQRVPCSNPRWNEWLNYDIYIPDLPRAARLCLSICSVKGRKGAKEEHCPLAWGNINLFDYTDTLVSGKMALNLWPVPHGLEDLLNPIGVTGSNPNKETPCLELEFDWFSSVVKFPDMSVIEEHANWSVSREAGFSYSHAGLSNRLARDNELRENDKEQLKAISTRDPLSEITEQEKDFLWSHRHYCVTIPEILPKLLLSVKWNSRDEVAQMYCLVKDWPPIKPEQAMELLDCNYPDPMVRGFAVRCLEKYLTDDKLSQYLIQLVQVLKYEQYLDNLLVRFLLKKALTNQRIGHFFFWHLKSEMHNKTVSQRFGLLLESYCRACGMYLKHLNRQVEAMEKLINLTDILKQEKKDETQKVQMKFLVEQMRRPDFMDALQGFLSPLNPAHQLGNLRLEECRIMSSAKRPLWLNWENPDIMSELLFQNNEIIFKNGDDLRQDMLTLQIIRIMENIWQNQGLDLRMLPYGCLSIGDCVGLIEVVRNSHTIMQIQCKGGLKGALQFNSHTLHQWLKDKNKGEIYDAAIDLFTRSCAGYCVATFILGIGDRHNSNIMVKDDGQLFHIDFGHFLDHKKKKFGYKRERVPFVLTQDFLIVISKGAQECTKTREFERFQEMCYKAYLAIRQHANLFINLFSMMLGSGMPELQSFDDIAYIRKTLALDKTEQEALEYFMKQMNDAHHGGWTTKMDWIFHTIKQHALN
T1 sequence (P27986 whole entry partner, species assumed): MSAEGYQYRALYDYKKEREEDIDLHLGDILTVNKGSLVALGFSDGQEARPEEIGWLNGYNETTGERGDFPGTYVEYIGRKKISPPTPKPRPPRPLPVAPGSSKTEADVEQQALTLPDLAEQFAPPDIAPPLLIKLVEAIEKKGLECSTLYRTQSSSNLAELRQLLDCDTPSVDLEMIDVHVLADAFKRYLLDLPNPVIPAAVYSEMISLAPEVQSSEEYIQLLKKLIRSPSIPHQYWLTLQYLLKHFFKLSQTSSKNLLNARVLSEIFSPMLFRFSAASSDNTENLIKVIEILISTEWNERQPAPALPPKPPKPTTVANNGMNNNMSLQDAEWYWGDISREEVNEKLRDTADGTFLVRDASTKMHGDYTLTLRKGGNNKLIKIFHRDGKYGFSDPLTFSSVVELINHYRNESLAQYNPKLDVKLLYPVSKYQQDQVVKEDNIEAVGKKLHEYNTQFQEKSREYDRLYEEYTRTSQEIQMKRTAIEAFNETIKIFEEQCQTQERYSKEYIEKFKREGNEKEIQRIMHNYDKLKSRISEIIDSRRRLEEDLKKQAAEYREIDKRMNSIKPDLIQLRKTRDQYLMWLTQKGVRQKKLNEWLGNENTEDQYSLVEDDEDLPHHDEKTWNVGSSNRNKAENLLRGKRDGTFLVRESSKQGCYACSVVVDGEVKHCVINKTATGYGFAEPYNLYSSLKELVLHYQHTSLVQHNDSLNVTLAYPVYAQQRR

Row | Structure (SMILES) | IC50 [nM]
1 | c1cc2cc(-c3ccc4ncc(N5CCOCC5)nc4c3)cnc2[nH]1 [Example 4] | 50
2 | COc1ccc(-c2ccc3ncc(N4CCOCC4)nc3c2)cn1 [Example 2] | 100
3 | NS(=O)(=O)c1cncc(-c2ccc3ncc(-c4ccncc4)nc3c2)c1 [Example 70] | 200
4 | CCNc1cnc2ccc(-c3cnc(N)c(S(=O)(=O)N(C)C)c3)cc2n1 [Example 19] | 8
5 | c1cc2ncc(N3CCOCC3)nc2cc1-c1cnc2[nH]ncc2c1 [Example 1, 2-(4-morpholinyl)-7-(1H-pyrazolo[3,4-b]pyridin-5-yl)quinoxaline] | 5
